Reference: patent US20240238259A1, “COMBINATION THERAPY FOR PULMONARY HYPERTENSION” (VIVUS LLC, priority 2015, published 2024)
Where two headings read alike, the source gives them in different places.

Columns and labels:
patients with PAH = test: Phase IIA randomized, double-blind, placebo-controlled clinical trial of tacrolimus in PAH (NCT01647945); assay type: in vivo, human
Protocol: Tacrolimus was selected as the agent for increasing BMPR2 signaling. A phase IIA trial to assess the safety and tolerability of different doses tacrolimus (goal blood level <2 ng/ml, 2-3 ng/ml, 3-5 ng/ml) vs Placebo was conducted (Clinical Trials Identifier: NCT01647945). The secondary endpoints were change in clinical worsening, change in 6-min walk distance, NT-pro BNP, Uric Acid, and novel echo parameters. The phase IIA trial was a single center trial with 23 patients. This study was open to male or female subjects, 18-70 years of age, with pulmonary hypertension. The Inclusion and Exclusion criteria used are below:
• 1. Age ≥18 and <70 years • 2. Diagnosis of WHO Group I Pulmonary Arterial Hypertension (PAH) (Idiopathic (I)PAH, Heritable PAH (including Hereditary Hemorrhagic Telangiectasia), Associated (A)PAH (including collagen vascular disorders, drugs+toxins exposure, congenital heart disease, and portopulmonary disease). • 3. Stable on active PAH treatment including any prostacycline or phosphodiesterase inhibitors and the endothelin antagonist Ambrisentan alone or in combination (stability defined as: <10% change in 6 MWD, no change in NYHA class, no hospitalization or addition of PAH therapy for at least 3 months). • 4. Previous Right Heart Catheterization (RHC) that documented: • a. Mean PAP ≥25 mmHg. • b. Pulmonary capillary wedge pressure <15 mmHg. • c. Pulmonary Vascular Resistance ≥3.0 Wood units or 240 dynes/see/cm5 • 5. All NYHA/WHO functional classes. • 6. Willingness of female subjects to use birth control, or be post-menopausal, or status post hysterectomy.
• 1. WHO Group II-V Pulmonary Hypertension. • 2. Current or prior experimental PAH treatments within the last 6 months (including but not limited to tyrosine kinase inhibitors, rho-kinase inhibitors, or cGMP modulators). • 3. Current active treatment with the dual endothelin receptor antagonist bosentan. • 4. Total lung Capacity (TLC)<60% predicted; if TLC b/w 60 and 70% predicted, high resolution computed tomography must be available to exclude significant interstitial lung disease. • 5. Forced expiratory volume (FEV1)/Forced Vital Capacity (FVC)<70% predicted and FEV1<60% predicted • 6. Significant left-sided heart disease (based on screening Echocardiogram): • a. Significant aortic or mitral valve disease • b. Diastolic dysfunction≥Grade II • c. Left Ventricle (LV) systolic function <45% • d. Pericardial constriction • e. Restrictive cardiomyopathy • f. Significant coronary disease with demonstrable ischemia. • 7. Chronic renal insufficiency defined as an estimated creatinine clearance <30 ml/min (by Modification of diet in renal disease (MDRD) equation). • 8. Current atrial arrhythmias not under optimal control. • 9. Uncontrolled systemic hypertension: SBP>160 mm or DBP>100 mm • 10. […]

PAH patients = conditions: for symptoms and exercise capacity: within 1 month of initiation, ambrisentan
[1] = tested on: BMPR2 signaling (BRE from the Id1 promoter linked to luciferase, C2C12 mouse myoblastoma reporter cells); test: BRE-Luc reporter high throughput screen for compounds that increase BMPR2 signaling; assay type: cell-based; conditions: screen of library of >3,600 compounds
Protocol: A C2C12 mouse myoblastoma reporter cells line where the BRE (BMP Response Element) from the Id1 promoter (a main downstream target of BMP signaling) was linked to luciferase (BRE-Luc) was used to identify compounds that increase BMPR2 signaling. Thus, activation of the BMP pathway was measured by luminescence. A high throughput screen of a library containing greater than 3,600 compounds was used.

[2] = all three patients, first 3-6 months
[3] = patient #1, after 3 months of treatment
[4] = patient #1, baseline, 3 and 6 months
[5] = patient #2, 12 months follow-up
[6] = patient #2, baseline, 3 and 6 months
[7] = patient #2, within 3 months of treatment

- infections (PAH patients; human, in vivo, iv): did not report an increase of infections
Compound: C=CC[C@@H]1/C=C(\C)C[C@H](C)C[C@H](OC)[C@H]2O[C@@](O)(C(=O)C(=O)N3CCCC[C@H]3C(=O)O[C@H](/C(C)=C/[C@@H]3CC[C@@H](O)[C@H](OC)C3)[C@H](C)[C@@H](O)CC1=O)[C@H](C)C[C@@H]2OC [Tacrolimus, tacrolimus]
- BMPR2 signaling (biomarker data) (patients with PAH; PAH patients): increase in BMPR2 signaling
- drug-related serious adverse events (patients with PAH; all tested doses): no drug-related serious adverse events
- incidences of hypertension or cardiovascular events (patients with PAH; all tested doses): no incidences of hypertension or cardiovascular events
- tolerability (patients with PAH; all tested doses (goal blood level <2, 2-3, 3-5 ng/ml)): well tolerated
- REVEAL risk score (PAH patients; all 3 patients): improved
- hospital admission for worsening of heart failure (PAH patients; all three patients, during treatment): None of the patients was admitted
- 6 MWD (PAH patients; [2]): increase
- NT-pro BNP (PAH patients; [2]): decrease
- tolerability (PAH patients; human, in vivo): tolerated low-dose tacrolimus very well
- symptoms and exercise capacity (PAH patients; patient #1 (IPAH), trough goal 1.5-2.5 ng/mL, on epoprostenol, sildenafil): substantial improvement
- PAH associated hospitalizations (PAH patients; patient #1, 12 months after initiation (3 in the 12 months prior)): free of any PAH associated hospitalizations
- NT-proBNP (PAH patients; [3]): 678 pg/mL
- NYHA class symptoms (PAH patients; [3]): NYHA Class I
- improvement in 6 MWD (PAH patients; [3]): approximately 100 meters
- lowering of NT-proBNP (PAH patients; [3]): > 50%
- RV ejection fraction (RVEF), cMRI (PAH patients; [4]): stable
- RV end-diastolic volume index (RVEDVi), cMRI (PAH patients; [4]): stable
- RV stroke volume index (RVSVi), cMRI (PAH patients; [4]): increased
- cardiac index (CI), cMRI (PAH patients; [4]): increased
- REVEAL risk score (PAH patients; patient #1, on treatment (11 at transplant listing)): 3
- lung transplant list status (PAH patients; patient #1, within 2 months): placed on a status 7 (hold) for transplantation
- symptoms and exercise capacity (PAH patients; patient #2 (systemic sclerosis associated PAH), on treprostinil, sildenafil, dopamine): some improvement
- PAH related hospitalizations (PAH patients; patient #2, 12 months after initiation (4 in the 15 months prior)): free from any PAH related hospitalizations
- CO (PAH patients; [5]): 3.4 L/min
- NT-pro BNP (PAH patients; [5]): 1,895 pg/mL
- NT-pro BNP reduction compared to baseline (PAH patients; [5]): 30%
- NYHA symptoms (PAH patients; [5]): stable NYHA III symptoms
- PAWP (PAH patients; [5]): 10 mmHg
- PVR (PAH patients; [5]): 14.1 WU
- SVO2 (PAH patients; [5]): 59%
- increase in 6 MWD (PAH patients; [5]): 94 meter
- mPAP (PAH patients; [5]): 58 mmHg
- mRAP (PAH patients; [5]): 7 mmHg
- CI, cMRI (PAH patients; [6]): improvement
- RVEDVi, cMRI (PAH patients; [6]): stable
- RVEF, cMRI (PAH patients; [6]): substantial improvement
- RVSVi, cMRI (PAH patients; [6]): improvement
- REVEAL risk score (PAH patients; patient #2, on treatment (from 12)): 11
- NT-pro BNP (PAH patients; patient #2, within 1 month (from 2,669)): 1,895 pg/mL
- 6 MWD improved by (PAH patients; [7]): 18 meters
- NT-pro BNP (PAH patients; [7]): 1,580 pg/mL
- NYHA symptoms (PAH patients; [7]): stable NYHA III symptoms
- symptoms (PAH patients; patient #3 (drugs and toxins associated PAH), over a 5-months period, on treprostinil, sildenafil): symptomatic improvement
- BMPR2 signaling (activation of the BMP pathway measured by luminescence) [1]: increased BMPR2 signaling
